Experimental data taken from patent publication US11980626B2, “Compositions for treatment of breast and prostate cancer” (Kembi Therapeutics Pty Ltd, priority 2017, dated 2024).

Experiments:
CYP17 [1] = test: Endocrine profile (steroid hormone changes) in prostate cancer patients; assay type: in vivo, human; settings: seviteronel 600 mg once daily, FIG. 7
Procedure: (§1) Males that fulfill the Inclusion Criteria captured in Table 1 were administered seviteronel (600 mg; 4×150 mg tablets) once daily until any of the criteria in Table 2 are met. Table 3 captures the clinical screening data and screening schedule for the various screens for each of the male subjects.
as §1, with “tablets) and dexamethasone (0.5 mg)” for “tablets)”
(§2) Blood samples were collected for evaluation of steroid hormone changes as a pharmacodynamics indicator of CYP17 inhibition over time e.g., DHEA, DHEA-S, androstenedione, testosterone, cortisol, corticosterone, progesterone, pregnenolone, estradiol, estrone and ACTH).

CYP17 [2] = test: Progesterone response in ER+ breast cancer patients; assay type: in vivo, human; settings: vs. patients treated with abiraterone and prednisone (Abi/Pred), FIG. 20
Procedure: as §1, with “Subjects” for “Males”, “4” for “1”, “mg for male subjects,” for “mg;”, “4×150 mg tablets; 450 mg for female subjects, 3×150” for “4×150”, “5” for “3”
Subjects that fulfill the Inclusion Criteria captured in Table 4 were administered seviteronel (600 mg for male subjects, 4×150 mg tablets; 450 mg for female subjects, 3×150 mg tablets) and dexamethasone (0.5 mg) once daily until any of the criteria in Table 2 are met. Table 5 captures the clinical screening data and screening schedule for the various screens for each of the male subjects.
as §2

In the case of CC(C)C(O)(c1ccc2cc(OC(F)F)c(OC(F)F)cc2c1)c1c[nH]nn1 (centres unmarked) [SEVI, 1-(6,7-Bis(difluoromethoxy)naphthalen-2-yl)-2-methyl-1-(1H-1,2,3-triazol-4-yl)propan-1-ol], the “"up-stream" steroids change” value (CYP17 [1]) is reported as “limited increase”, the ACTH change (CYP17 [1]) is reported as “modest ACTH increase” and the androgen change (CYP17 [1]) is reported as “modest androgen decline”. For the same compound, the cortisol change (CYP17 [1]) was “modest cortisol decrease” and the increase in progesterone (CYP17 [2]) was “lack of clinically relevant increase”.
